{"source": "ChEMBL document CHEMBL1146095", "about": "“Modeling the preferred shapes of polyamine transporter ligands and dihydromotuporamine-C mimics: shovel versus hoe” (J Med Chem, 2006)", "key": {"[1]": {"system": "Mammalian polyamine transporter", "experiment": "Inhibition of [14C]spermidine uptake into polyamine transporter expressed in L1210 cells", "format": "functional, cell-based, Mus musculus"}, "CHO": {"system": "CHO", "experiment": "Cytotoxicity against CHO cell line", "format": "functional, cell-based", "settings": "Cricetulus griseus"}, "CHO-MG": {"system": "CHO-MG", "experiment": "Cytotoxicity against CHO-MG cell line", "format": "functional, cell-based", "settings": "Cricetulus griseus"}, "[2]": {"experiment": "Selectivity for CHO cells over CHO-MG cells", "format": "functional"}}, "data": [{"compound": "CCN(CCCNCCCN)Cc1c2ccccc2cc2ccccc12.Cl.Cl.Cl", "values": [{"measurement": "Ki", "setting": "[1]", "value": 23.5, "unit": "µM"}, {"measurement": "IC50", "setting": "CHO", "value": 5.3, "unit": "µM"}, {"measurement": "IC50", "setting": "CHO-MG", "value": 4, "unit": "µM"}, {"measurement": "Ratio IC50", "setting": "[2]", "value": 0.8}]}]}
